These results are taken from patent US20220396565A1 (Hoffmann-La Roche Inc., priority 2020, published 2022).

Where a name gives a salt, the structure may show the parent alone.

What is called IC90 is the concentration at which the effect reaches the 90% level.

For the first assay, the system named is Acinetobacter baumannii ATCC17961. Briefly: Antimicrobial susceptibility testing: 90% growth inhibitory concentration (IC90) determination, Iso-Sensitest broth. The note with it: Acinetobacter baumannii, ATCC17961, 90% growth inhibitory concentration, Acinetobacter baumannii ATCC17961, Iso-Sensitest broth; read-out: ATCC 17961 IC90. Format: cell-based. Here is the method: The in vitro antimicrobial activity of the compounds was determined according to the following procedure:
The assay used a 10-points Iso-Sensitest broth medium to measure quantitatively the in vitro activity of the compounds against Acinetobacter baumannii ATCC17978 or ATCC17961.
Stock compounds in DMSO were serially twofold diluted (e.g. range from 10 to 0.02 μM final concentration) in 384 wells microtiter plates and inoculated with 49 μl the bacterial suspension in Iso-Sensitest medium to have a final cell concentration of ˜5×10^(5) CFU/ml in a final volume/well of 50 ul/well. Microtiter plates were incubated at 35±2° C.
Bacterial cell growth was determined with the measurement of optical density at k=600 nm each 20 minutes over a time course of 16 h. Growth inhibition was calculated during the logarithmic growth of the bacterial cells with determination of the concentration inhibiting 50% (IC50) and 90% (IC90) of the growth.
Table 1 provides the 90% growth inhibitory concentrations (IC90) in micromoles per liter of the compounds of present invention obtained against the strain Acinetobacter baumannii ATCC17978 or ATCC17961.
Consider `COc1ccc(-c2cnc(C(=O)Nc3ccc(C(=O)N4CCC(C(=O)N5CC(CN)C5)CC4)c(Cl)c3)n2C)c(F)c1F` [Example 34, N-[4-[4-[3-(aminomethyl)azetidine-1-carbonyl]piperidine-1-carbonyl]-3-chloro-phenyl]-5-(2,3-difluoro-4-methoxy-phenyl)-1-methyl-imidazole-2-carboxamidetrifluoroacetate], for which the 90% effect concentration (IC90) was 70 nM. Regarding `COc1ccc(-c2cnc(C(=O)Nc3ccc(C(=O)N4CCC(C(=O)NCC5CCNCC5)CC4)c(Cl)c3)n2C)c(F)c1F` [Example 35, 1-[2-chloro-4-[[5-(2,3-difluoro-4-methoxy-phenyl)-1-methyl-imidazole-2-carbonyl]amino]benzoyl]-N-(4-piperidylmethyl)piperidine-4-carboxamide formate], the 90% effect concentration (IC90) was found to be 60 nM. Same read-out and setting: to `COc1ccc(-c2cnc(C(=O)Nc3ccc(C(=O)N4CCC(C(=O)NCc5ccncc5)CC4)c(Cl)c3)n2C)c(F)c1F` [Example 36, 1-[2-chloro-4-[[5-(2,3-difluoro-4-methoxy-phenyl)-1-methyl-imidazole-2-carbonyl]amino]benzoyl]-N-(4-pyridylmethyl)piperidine-4-carboxamide] belongs 130 nM.

`COc1ccc(-c2cnc(C(=O)Nc3ccc(C(=O)N4CCC(C(=O)NC5CCNCC5)CC4)c(Cl)c3)n2C)c(F)c1F` [Example 38, 1-[2-chloro-4-[[5-(2,3-difluoro-4-methoxy-phenyl)-1-methyl-imidazole-2-carbonyl]amino]benzoyl]-N-(4-piperidyl)piperidine-4-carboxamide formate]: the 90% effect concentration (IC90) was 60 nM.

On to `COc1ccc(-c2cnc(C(=O)Nc3ccc(C(=O)N4CCC(C(=O)N5CCC(N)CC5)CC4)c(Cl)c3)n2C)c(F)c1F` [Example 39, N-[4-[4-(4-aminopiperidine-1-carbonyl)piperidine-1-carbonyl]-3-chloro-phenyl]-5-(2,3-difluoro-4-methoxy-phenyl)-1-methyl-imidazole-2-carboxamide formate], for which the IC90 worked out at 70 nM. On to `COc1ccc(-c2cnc(C(=O)Nc3ccc(C(=O)N4CCC(C(=O)N5CC(CCN)C5)CC4)c(Cl)c3)n2C)c(F)c1F` [Example 40, N-[4-[4-[3-(2-aminoethyl)azetidine-1-carbonyl]piperidine-1-carbonyl]-3-chloro-phenyl]-5-(2,3-difluoro-4-methoxy-phenyl)-1-methyl-imidazole-2-carboxamide formate], for which the IC90 is 70 nM.

Turning to `COc1ccc(-c2cnc(C(=O)Nc3ccc(C(=O)N4CC5(CC(C(=O)N6CCN[C@@H](CO)C6)C5)C4)c(Cl)c3)n2C)c(F)c1F` [Example 41, N-[3-chloro-4-[6-[(3R)-3-(hydroxymethyl)piperazine-1-carbonyl]-2-azaspiro[3,3]heptane-2-carbonyl]phenyl]-5-(2,3-difluoro-4-methoxy-phenyl)-1-methyl-imidazole-2-carboxamide], the 90% effect concentration (IC90) came out at 140 nM. Still for that read-out and setting: to `COc1ccc(-c2cnc(C(=O)Nc3ccc(C(=O)N4CC5(CNC5)C4)c(Cl)c3)n2C)c(F)c1F` [Example 42, N-[3-chloro-4-(2,6-diazaspiro[3.3]heptane-2-carbonyl)phenyl]-5-(2,3-difluoro-4-methoxy-phenyl)-1-methyl-imidazole-2-carboxamide trifluoroacetate] belongs 170 nM; to `CN(C)C1CN(C(=O)C2CCN(C(=O)c3ccc(NC(=O)c4ncc(-c5ccc(OC(F)F)c(F)c5F)n4C)cc3Cl)CC2)C1` [Example 43, N-[3-chloro-4-[4-[3-(dimethylamino)azetidine-1-carbonyl]piperidine-1-carbonyl]phenyl]-5-[4-(difluoromethoxy)-2,3-difluoro-phenyl]-1-methyl-imidazole-2-carboxamide trifluoioacetate], 90 nM. Regarding `Cn1c(-c2ccc(OC(F)F)c(F)c2F)cnc1C(=O)Nc1ccc(C(=O)N2CCC(C(=O)N[C@H]3CNC[C@H]3F)CC2)c(Cl)c1` [Example 44, 1-[2-chloro-4-[[5-[4-(difluoromethoxy)-2,3-difluoro-phenyl]-1-methyl-imidazole-2-carbonyl]amino]benzoyl]-N-[(3S,4R)-4-fluoropyrrolidin-3-yl]piperidine-4-carboxamide trifluoroacetate], the IC90 worked out at 30 nM.

Take `Cn1c(-c2ccc(OC(F)F)c(F)c2F)cnc1C(=O)Nc1ccc(C(=O)N2CCC(C(=O)N3CC[C@@H](N)C3)CC2)c(Cl)c1` [Example 45, N-[4-[4-[(3R)-3-aminopyrrolidine-1-carbonyl]piperidine-1-carbonyl]-3-chloro-phenyl]-5-[4-(difluoromethoxy)-2,3-difluoro-phenyl]-1-methyl-imidazole-2-carboxamide trifluoroacetate]: the 90% effect concentration (IC90) turned out to be 80 nM.

With `Cn1c(-c2ccc(OC(F)F)c(F)c2F)cnc1C(=O)Nc1ccc(C(=O)N2CCC(C(=O)N3CC[C@H](N)C3)CC2)c(Cl)c1` [Example 46, N-[4-[4-[(3S)-3-aminopyrrolidine-1-carbonyl]piperidine-1-carbonyl]-3-chloro-phenyl]-5-[4-(difluoromethoxy)-2,3-difluoro-phenyl]-1-methyl-imidazole-2-carboxamide trifluoroacetate], the IC90 turned out to be 70 nM. Take `Cn1c(-c2ccc(OC(F)F)c(F)c2F)cnc1C(=O)Nc1ccc(C(=O)N2CCC(C(=O)NC[C@@H]3CCNC3)CC2)c(Cl)c1` [Example 47, 1-[2-chloro-4-[[5-[4-(difluoromethoxy)-2,3-difluoro-phenyl]-1-methyl-imidazole-2-carbonyl]amino]benzoyl]-N-[[(3R)-pyrrolidin-3-yl]methyl]piperidine-4-carboxamide trifluoroacetate]: the IC90 was found to be 40 nM. As to `Cn1c(-c2ccc(OC(F)F)c(F)c2F)cnc1C(=O)Nc1ccc(C(=O)N2CCC(C(=O)NC[C@H]3CCNC3)CC2)c(Cl)c1` [Example 48, 1-[2-chloro-4-[[5-[4-(difluoromethoxy)-2,3-difluoro-phenyl]-1-methyl-imidazole-2-carbonyl]amino]benzoyl]-N-[[(3S)-pyrrolidin-3-yl]methyl]piperidine-4-carboxamide trifluoroacetate], the IC90 turned out to be 40 nM. As for `Cn1c(-c2ccc(OC(F)F)c(F)c2F)cnc1C(=O)Nc1ccc(C(=O)N2CCC(C(=O)N3CCC(C(N)=O)C3)CC2)c(Cl)c1` (centres unmarked) [Example 49, N-[4-[4-(3-carbamoylpyrrolidine-1-carbonyl)piperidine-1-carbonyl]-3-chloro-phenyl]-5-[4-(difluoromethoxy)-2,3-difluoro-phenyl]-1-methyl-imidazole-2-carboxamide trifluoroacetate], the concentration for an effect of 90% (IC90) was found to be 150 nM. Still for that read-out and setting: the figure for `Cn1c(-c2ccc(OC(F)F)c(F)c2F)cnc1C(=O)Nc1ccc(C(=O)N2CCC(C(=O)N[C@H]3CNC[C@@H]3O)CC2)c(Cl)c1` [Example 50, 1-[2-chloro-4-[[5-[4-(difluoromethoxy)-2,3-difluoro-phenyl]-1-methyl-imidazole-2-carbonyl]amino]benzoyl]-N-[(3S,4S)-4-hydroxypyrrolidin-3-yl]piperidine-4-carboxamide trifluoroacetate] is 50 nM.

Still in this assay, the particulars now being: Acinetobacter baumannii, ATCC17961, read-out: ATCC 17961 IC90.
`COc1ccc(-c2cnc(C(=O)Nc3ccc(C(=O)N4CCC(C(=O)N5C[C@H](N)[C@@H](F)C5)CC4)c(Cl)c3)n2C)c(F)c1F` [Example 37, N-[4-[4-[(3S,4S)-3-amino-4-fluoro-pyrrolidine-1-carbonyl]piperidine-1-carbonyl]-3-chloro-phenyl]-5-(2,3-difluoro-4-methoxy-phenyl)-1-methyl-imidazole-2-carboxamide trifluoroacetate]: the concentration for an effect of 90% (IC90) stood at 170 nM.
